Results published in the CheMixHub viscosity set.
Where “and” joins values, the source holds several entries; their conditions need not be identical. Equal entries are not always repeated.

Experiment: xn = mol fraction of the nth substance listed

CCCCCCCO + C1CCCCC1
viscosity [mPa·s]
Settings | 293.15 K | 303.15 K | 313.15 K | 323.15 K
100 kPa, x2 = 0.0812 | 6.08 | 4.38 | 3.22 | 2.46
100 kPa, x2 = 0.1614 | 5.3 | 3.79 | 2.82 | 2.16
100 kPa, x2 = 0.2386 | 4.61 | 3.28 | 2.47 | 1.91
100 kPa, x2 = 0.3496 | 3.76 | 2.69 | 2.05 | 1.59
100 kPa, x2 = 0.4387 | 3.17 | 2.28 | 1.75 | 1.38
100 kPa, x2 = 0.5596 | 2.47 | 1.81 | 1.41 | 1.12
100 kPa, x2 = 0.6491 | 2.02 | 1.52 | 1.18 | 0.95
100 kPa, x2 = 0.7411 | 1.64 | 1.27 | 1 | 0.82
100 kPa, x2 = 0.8503 | 1.28 | 1.03 | 0.83 | 0.7
100 kPa, x2 = 0.9397 | 1.07 | 0.87 | 0.72 | 0.62
101.33 kPa, x1 = 0.0996 | – | 0.9648 | – | –
101.33 kPa, x1 = 0.197 | – | 1.134 | – | –
101.33 kPa, x1 = 0.3024 | – | 1.357 | – | –
101.33 kPa, x1 = 0.3923 | – | 1.585 | – | –
101.33 kPa, x1 = 0.5062 | – | 1.936 | – | –
101.33 kPa, x1 = 0.6052 | – | 2.307 | – | –
101.33 kPa, x1 = 0.7008 | – | 2.749 | – | –
101.33 kPa, x1 = 0.795 | – | 3.258 | – | –
101.33 kPa, x1 = 0.884 | – | 3.84 | – | –

C1CCCCCCC1 + C1CCCC1
101 kPa
Settings | viscosity [mPa·s]
298.15 K, x1 = 0.0472 | 0.4501
298.15 K, x1 = 0.06 | 0.4609
298.15 K, x1 = 0.1203 | 0.5119
298.15 K, x1 = 0.1974 | 0.5838
298.15 K, x1 = 0.1982 | 0.5837
298.15 K, x1 = 0.2776 | 0.6681
298.15 K, x1 = 0.4053 | 0.824
298.15 K, x1 = 0.4083 | 0.827
298.15 K, x1 = 0.5052 | 0.968
298.15 K, x1 = 0.5909 | 1.116
298.15 K, x1 = 0.6747 | 1.276
298.15 K, x1 = 0.7902 | 1.55
298.15 K, x1 = 0.9049 | 1.895
303.15 K, x2 = 0.1036 | 1.684
303.15 K, x2 = 0.2009 | 1.421
303.15 K, x2 = 0.3014 | 1.205
303.15 K, x2 = 0.3972 | 1.031
303.15 K, x2 = 0.5003 | 0.8744
303.15 K, x2 = 0.5992 | 0.7468
303.15 K, x2 = 0.7036 | 0.6288
303.15 K, x2 = 0.8996 | 0.4555

O=C1O[C@H]([C@@H](O)CO)C(O)=C1O + O
Settings | viscosity
293.15 K, 101 kPa, x1 = 0.00359 | 1.078 mPa·s and 1.081 mPa·s and 1.077 mPa·s
293.15 K, 101 kPa, x1 = 0.005375 | 1.124 mPa·s and 1.122 mPa·s and 1.122 mPa·s
293.15 K, 101 kPa, x1 = 0.007156 | 1.162 mPa·s
293.15 K, 101.3 kPa, x1 = 0.0001803 | 1.013 mPa·s
293.15 K, 101.3 kPa, x1 = 0.00036 | 1.021 mPa·s
293.15 K, 101.3 kPa, x1 = 0.0005398 | 1.029 mPa·s
298.15 K, 101 kPa, x1 = 0.000364 | 0.899 mPa·s and 0.8985 mPa·s
298.15 K, 101 kPa, x1 = 0.000657 | 0.904 mPa·s and 0.9039 mPa·s
298.15 K, 101 kPa, x1 = 0.001 | 0.823 mPa·s
298.15 K, 101 kPa, x1 = 0.00125 | 0.916 mPa·s and 0.9161 mPa·s
298.15 K, 101 kPa, x1 = 0.00155 | 0.922 mPa·s and 0.9216 mPa·s
298.15 K, 101 kPa, x1 = 0.001665 | 0.9245 mPa·s
298.15 K, 101 kPa, x1 = 0.001856 | 0.927 mPa·s and 0.9273 mPa·s
298.15 K, 101 kPa, x1 = 0.002776 | 0.9451 mPa·s
298.15 K, 101 kPa, x1 = 0.003 | 0.835 mPa·s
298.15 K, 101 kPa, x1 = 0.005 | 0.847 mPa·s
298.15 K, 101 kPa, x1 = 0.005396 | 0.9979 mPa·s
298.15 K, 101 kPa, x1 = 0.009999 | 1.1 mPa·s
298.15 K, 101.3 kPa, x1 = 0.0001803 | 0.905 mPa·s
298.15 K, 101.3 kPa, x1 = 0.00036 | 0.913 mPa·s
298.15 K, 101.3 kPa, x1 = 0.0005398 | 0.918 mPa·s
303.15 K, 101 kPa, x1 = 0.001798 | 0.8267 mPa·s and 0.825 mPa·s
303.15 K, 101 kPa, x1 = 0.0018 | 0.8248 mPa·s
303.15 K, 101 kPa, x1 = 0.00359 | 0.8564 mPa·s and 0.8524 mPa·s
303.15 K, 101 kPa, x1 = 0.005375 | 0.8897 mPa·s and 0.8876 mPa·s and 0.8876 mPa·s
303.15 K, 101 kPa, x1 = 0.007154 | 0.9213 mPa·s and 0.9197 mPa·s
303.15 K, 101 kPa, x1 = 0.007156 | 0.916 mPa·s
303.15 K, 101.3 kPa, x1 = 0.0001803 | 0.812 mPa·s
303.15 K, 101.3 kPa, x1 = 0.00036 | 0.817 mPa·s
303.15 K, 101.3 kPa, x1 = 0.0005398 | 0.821 mPa·s
308.15 K, 101 kPa, x1 = 0.000364 | 0.724 mPa·s and 0.7239 mPa·s
308.15 K, 101 kPa, x1 = 0.000657 | 0.728 mPa·s and 0.7282 mPa·s
308.15 K, 101 kPa, x1 = 0.0007676 | 0.7308 mPa·s
308.15 K, 101 kPa, x1 = 0.00125 | 0.738 mPa·s and 0.7377 mPa·s
308.15 K, 101 kPa, x1 = 0.00155 | 0.743 mPa·s and 0.7431 mPa·s
308.15 K, 101 kPa, x1 = 0.001665 | 0.7425 mPa·s
308.15 K, 101 kPa, x1 = 0.001856 | 0.748 mPa·s and 0.7477 mPa·s
308.15 K, 101 kPa, x1 = 0.002776 | 0.7609 mPa·s
308.15 K, 101 kPa, x1 = 0.005396 | 0.8018 mPa·s
308.15 K, 101 kPa, x1 = 0.006205 | 0.8139 mPa·s
308.15 K, 101 kPa, x1 = 0.009999 | 0.8791 mPa·s
308.15 K, 101.3 kPa, x1 = 0.0001803 | 0.733 mPa·s
308.15 K, 101.3 kPa, x1 = 0.00036 | 0.738 mPa·s
308.15 K, 101.3 kPa, x1 = 0.0005398 | 0.743 mPa·s
313.15 K, 101 kPa, x1 = 0.001798 | 0.6755 mPa·s and 0.6783 mPa·s
313.15 K, 101 kPa, x1 = 0.0018 | 0.6734 mPa·s
313.15 K, 101 kPa, x1 = 0.00359 | 0.6979 mPa·s
313.15 K, 101 kPa, x1 = 0.005375 | 0.7227 mPa·s and 0.7222 mPa·s
313.15 K, 101 kPa, x1 = 0.007154 | 0.7485 mPa·s and 0.7473 mPa·s
313.15 K, 101 kPa, x1 = 0.007156 | 0.7432 mPa·s
313.15 K, 101.3 kPa, x1 = 0.0001803 | 0.668 mPa·s
313.15 K, 101.3 kPa, x1 = 0.00036 | 0.671 mPa·s
313.15 K, 101.3 kPa, x1 = 0.0005398 | 0.676 mPa·s
318.15 K, 101 kPa, x1 = 0.000364 | 0.6 mPa·s and 0.5998 mPa·s
318.15 K, 101 kPa, x1 = 0.000657 | 0.604 mPa·s and 0.6039 mPa·s
318.15 K, 101 kPa, x1 = 0.0007676 | 0.6078 mPa·s
318.15 K, 101 kPa, x1 = 0.000952 | 0.608 mPa·s and 0.6081 mPa·s
318.15 K, 101 kPa, x1 = 0.00125 | 0.612 mPa·s and 0.6122 mPa·s
318.15 K, 101 kPa, x1 = 0.00155 | 0.616 mPa·s
318.15 K, 101 kPa, x1 = 0.001665 | 0.6147 mPa·s
318.15 K, 101 kPa, x1 = 0.001856 | 0.621 mPa·s
318.15 K, 101 kPa, x1 = 0.002776 | 0.6296 mPa·s
318.15 K, 101 kPa, x1 = 0.006205 | 0.6736 mPa·s
318.15 K, 101 kPa, x1 = 0.009999 | 0.725 mPa·s
323.15 K, 101 kPa, x1 = 0.001798 | 0.5655 mPa·s and 0.5637 mPa·s
323.15 K, 101 kPa, x1 = 0.0018 | 0.5616 mPa·s
323.15 K, 101 kPa, x1 = 0.00359 | 0.5832 mPa·s and 0.5805 mPa·s
323.15 K, 101 kPa, x1 = 0.005375 | 0.6022 mPa·s and 0.6013 mPa·s
323.15 K, 101 kPa, x1 = 0.007154 | 0.6221 mPa·s and 0.6216 mPa·s
323.15 K, 101 kPa, x1 = 0.007156 | 0.6179 mPa·s

C1CCCCCCC1 + Clc1ccccc1
viscosity [mPa·s], 101 kPa
Settings | x1 = 0.1213 | x1 = 0.2071 | x1 = 0.3009 | x1 = 0.3941 | x1 = 0.5112 | x1 = 0.5915 | x1 = 0.6905 | x1 = 0.799 | x1 = 0.9125
308.15 K | 0.7246 | 0.7681 | 0.8486 | 0.9205 | 1.014 | 1.079 | 1.159 | 1.297 | 1.544
313.15 K | 0.6673 | 0.7011 | 0.7511 | 0.8196 | 0.9056 | 0.951 | 1.042 | 1.197 | 1.402
